The source of these data is DBAASP.

Converted amounts (≈) assume the structure as drawn. “And” between values parts separate entries of the source, which are not always exact repeats. Equal values may be shown once.

Test systems include Streptococcus iniae; Lactococcus garvieae; Vibrio parahaemolyticus; Vibrio harveyi; Vibrio alginolyticus; Bacteroides fragilis; Fusobacterium nucleatum; Clostridium septicum; Cutibacterium acnes.
What all share (assay): ≥ marks a high value that may be exact or a test limit, other limits are often not marked, values filed in µg/mL are converted to µM
For test [1], the system named is Escherichia coli BCRC 10675.
For test [2], the system named is Staphylococcus xylosus BCRC 12930.
In test [3] the test system is Yersinia enterocolitica BCRC 13999.
The test system of test [4] is Vibrio parahaemolyticus BCRC 10806.
For test [5], the system named is Staphylococcus aureus BCRC 10780.
For test [6], the system named is Listeria monocytogenes BCRC 14845.
For test [7], the system named is Staphylococcus aureus BCRC 10781.
Test [8] relates to Streptococcus equinus BCRC 14729.
Test [9] deals with Klebsiella oxytoca BCRC 13985.
Test [10] has as its system Pseudomonas aeruginosa BCRC 10944.
The test system of test [11] is Vibrio alginolyticus BCRC 12829.
Test [12] relates to Vibrio anguillarum serotype O1.
The subject of test [13] is Enterobacter cloacae BCRC 10401.
The subject of test [14] is Klebsiella aerogenes BCRC 10370.
Test [15] concerns Batrachochytrium dendrobatidis.
For test [16], the system named is Peptostreptococcus anaerobius.
For test [17], the system named is Staphylococcus aureus ATCC 25923.
The subject of test [18] is Clostridium tertium ATCC 19465.
Test [19] relates to Prevotella melaninogenica.
In test [20] the test system is Cutibacterium acnes ATCC 11828.
Test [21] deals with Staphylococcus aureus T7/5.
The subject of test [22] is Klebsiella pneumoniae KK3 9904.
For test [23], the system named is Staphylococcus aureus NCTC 8325.
Test [24] concerns Enterococcus faecalis ATCC 29212.
In test [25] the test system is Escherichia coli ATCC 25922.
Test [26] relates to Peptoniphilus asaccharolyticus ATCC 29743.
Test [27] has as its system Proteus mirabilis ATCC 25933.
Test [28] relates to Enterobacter cloacae HNTCC 53001.
Test [29] relates to Escherichia coli ATCC 25726.
Test [30] concerns Fusobacterium varium ATCC 27725.
Test [31] deals with Candida albicans ATCC 90028.
Test [32] relates to Pseudomonas aeruginosa ATCC 27853.
In test [33] the test system is Bacteroides fragilis ATCC 25285.
Test [34] deals with Salmonella enterica subsp. enterica serovar Typhimurium LT2.
Test [35] has as its system Staphylococcus epidermidis RP62A.
The subject of test [36] is Clostridium perfringens ATCC 10543.
In test [37] the test system is Candida albicans ATCC 900280.

`CC[C@H](C)[C@H](NC(=O)[C@H](CCCCN)NC(=O)[C@H](CCCCN)NC(=O)[C@H](C)NC(=O)[C@H](Cc1ccccc1)NC(=O)[C@@H](NC(=O)[C@H](C)NC(=O)[C@H](CC(C)C)NC(=O)[C@H](CCCCN)NC(=O)[C@H](CCCCN)NC(=O)[C@H](C)NC(=O)[C@H](C)NC(=O)[C@H](CC(N)=O)NC(=O)[C@H](C)NC(=O)CN)[C@@H](C)O)C(=O)N[C@@H](Cc1ccccc1)C(=O)N[C@H](C(=O)N[C@@H](C)C(=O)N[C@@H](Cc1ccc(O)cc1)C(=O)N[C@@H](Cc1c[nH]c2ccccc12)C(=O)O)[C@@H](C)O` [GANAAKKLATFAKKIFTAYW]: the MIC in test [1] is 14.5 µM; in test [2], 29.1 µM; against Streptococcus iniae, ≥ 58.2 µM; in [3] it was ≥ 116 µM; in [4], ≥ 58.2 µM; in the test on Lactococcus garvieae it was ≥ 116 µM. The MIC in test [5] was 29.1 µM; in the test on Vibrio parahaemolyticus it was 7.27 µM; in the test with Vibrio harveyi, 7.27 µM; in [6], ≥ 58.2 µM; in [7] it was 29.1 µM; in test [8], ≥ 58.2 µM. Besides, the MIC was ≥ 58.2 µM in test [9]; 29.1 µM in test [10]; 7.27 µM against Vibrio alginolyticus; ≥ 58.2 µM in test [11]; 7.27 µM in test [12]; 7.27 µM in test [13]. The compound also had an MIC in test [14] of 14.5 µM.
In the case of `CC[C@H](C)[C@H](NC(=O)CN)C(=O)N[C@@H](CCSC)C(=O)N[C@@H](CC(=O)O)C(=O)N[C@@H](CO)C(=O)N[C@H](C(=O)N[C@@H](CCCCN)C(=O)NCC(=O)N[C@@H](C)C(=O)N[C@@H](C)C(=O)N[C@@H](CCCCN)C(=O)N[C@@H](CCC(=O)O)C(=O)N[C@H](C(=O)N[C@@H](C)C(=O)NCC(=O)N[C@@H](Cc1cnc[nH]1)C(=O)N[C@@H](CC(C)C)C(=O)N[C@@H](CC(C)C)C(=O)N[C@@H](CC(=O)O)C(=O)N[C@@H](CC(N)=O)C(=O)N[C@@H](CC(C)C)C(=O)N[C@@H](CCCCN)C(=O)N[C@H]1CSSC[C@@H](C(=O)O)NC(=O)CNC(=O)[C@H]([C@@H](C)O)NC(=O)[C@H]([C@@H](C)CC)NC(=O)[C@H](CCCCN)NC1=O)[C@@H](C)CC)[C@@H](C)CC` [GIMDSIKGAAKEIAGHLLDNLKCKITGC], the MIC in test [15] was ≥ 50 µM.
`CC[C@H](C)[C@H](NC(=O)[C@H](CCCCN)NC(=O)[C@H](CCCCN)NC(=O)[C@H](C)NC(=O)[C@H](CC(C)C)NC(=O)[C@H](CC(N)=O)NC(=O)[C@@H](NC(=O)[C@H](CC(C)C)NC(=O)[C@@H](NC(=O)CNC(=O)[C@H](CC(C)C)NC(=O)[C@H](Cc1ccccc1)NC(=O)[C@@H](N)Cc1cnc[nH]1)[C@@H](C)O)C(C)C)C(=O)N[C@@H](CC(C)C)C(N)=O` [HFLGTLVNLAKKIL]: the MIC in [16] was 12.5 µM (≈ 19.6 µg/mL); in [17], 8 µM (≈ 12.5 µg/mL); in test [18], 3 µM (≈ 4.7 µg/mL); with Bacteroides fragilis, ≥ 50 µM; in test [19], 12.5 µM (≈ 19.6 µg/mL); in [20], 6 µM (≈ 9.4 µg/mL). Besides, the MIC is 10 µM (≈ 15.7 µg/mL) in test [21]; ≥ 32 µM in [22]; 6.32 µM (≈ 9.9 µg/mL) in [23]; 16 µM (≈ 25.1 µg/mL) in [24]; 20 µM (≈ 31.3 µg/mL) in [25]; 25 µM (≈ 39.1 µg/mL) in test [26]. In addition, the MIC is ≥ 128 µM in [27]; ≥ 32 µM in test [28]; ≥ 32 µM in [29]; ≥ 50 µM in test [30]; ≥ 40 µM and 25 µM in test [31]; 32 µM (≈ 50.1 µg/mL) in test [32]. The MIC in [33] was ≥ 50 µM; in [34], ≥ 32 µM; with Fusobacterium nucleatum, 25 µM (≈ 39.1 µg/mL); in the test on Clostridium septicum, 12.5 µM (≈ 19.6 µg/mL); in test [35], 4 µM (≈ 6.26 µg/mL); with Cutibacterium acnes it was 6 µM (≈ 9.4 µg/mL). Moreover, the MIC in test [36] amounted to 6 µM (≈ 9.4 µg/mL); in test [37], 16 µM (≈ 25.1 µg/mL).
